Measurements as given in publication PMC5549488, “Synthesis, Characterization, Cytotoxic Activity, and Interactions with CT-DNA and BSA of Cationic Ruthenium(II) Complexes Containing Dppm and Quinoline Carboxylates” (Bioinorganic Chemistry and Applications, 2017).

Target: T1, bovine serum albumin (BSA) (Bos taurus, UniProt P02769)
T1 construct: gene ALB
Experiment: tryptophan fluorescence quenching (Stern-Volmer, double-log plot), […] K; Kb given
Format: binding

T1 sequence (P02769 25-607): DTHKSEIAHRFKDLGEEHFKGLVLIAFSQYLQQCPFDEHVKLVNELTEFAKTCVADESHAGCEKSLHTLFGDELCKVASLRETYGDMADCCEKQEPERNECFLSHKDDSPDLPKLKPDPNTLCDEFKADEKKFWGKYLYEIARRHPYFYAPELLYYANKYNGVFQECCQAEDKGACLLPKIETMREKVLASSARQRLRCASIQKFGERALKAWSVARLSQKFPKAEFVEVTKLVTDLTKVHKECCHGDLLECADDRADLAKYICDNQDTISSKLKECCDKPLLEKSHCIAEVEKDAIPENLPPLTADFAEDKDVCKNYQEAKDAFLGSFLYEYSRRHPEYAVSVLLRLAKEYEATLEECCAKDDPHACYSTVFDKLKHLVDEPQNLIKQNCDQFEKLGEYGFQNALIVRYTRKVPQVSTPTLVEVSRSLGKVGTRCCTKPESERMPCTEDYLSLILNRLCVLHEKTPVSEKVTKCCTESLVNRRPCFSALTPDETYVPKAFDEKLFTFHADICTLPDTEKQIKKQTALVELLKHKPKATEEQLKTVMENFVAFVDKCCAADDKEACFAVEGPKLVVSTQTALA

Substance	K b / (×10^5)
cis-[Ru(kynu)(dppm)2]PF6 [compound 2]	3.25 (×10^5) (Kb)
cis-[Ru(quin)(dppm)2]PF6 [compound 1]	4.77 (×10^5) (Kb)
